Measurements reported in ChEMBL document CHEMBL4689842, “EUbOPEN Chemogenomics Library wave 1” (2021).

How the values were obtained:
Fibroblast = assay: Incucyte cell viability with human fibroblast; format: toxicity, cell-based; settings: 10 µM, compound concentration 10 uM
U2OS = assay: Incucyte cell viability with U2OS; format: toxicity, cell-based; settings: human, 10 µM, compound concentration 10 uM
[1] = 0 h, replicate number 2, timepoint 0 hours
[2] = 6 h, replicate number 1, timepoint 6 hours
[3] = 12 h, replicate number 1, timepoint 12 hours
[4] = 18 h, replicate number 1, timepoint 18 hours
[5] = 24 h, replicate number 1, timepoint 24 hours
[6] = 0 h, replicate number 1, timepoint 0 hours
[7] = 6 h, replicate number 2, timepoint 6 hours
[8] = 12 h, replicate number 2, timepoint 12 hours
[9] = 18 h, replicate number 2, timepoint 18 hours
[10] = 24 h, replicate number 2, timepoint 24 hours
Note: filed as whole numbers so only -1 and 0 and 1 occur.

Row | Structure (SMILES) | Growth Rate (Fibroblast; [1]) | Growth Rate (Fibroblast; [2]) | Growth Rate (Fibroblast; [3]) | Growth Rate (Fibroblast; [4]) | Growth Rate (Fibroblast; [5]) | Growth Rate (U2OS; [6]) | Growth Rate (U2OS; [2]) | Growth Rate (U2OS; [3]) | Growth Rate (U2OS; [4]) | Growth Rate (U2OS; [5]) | Growth Rate (Fibroblast; [6]) | Growth Rate (Fibroblast; [7]) | Growth Rate (U2OS; [7]) | Growth Rate (U2OS; [1]) | Growth Rate (U2OS; [8]) | Growth Rate (Fibroblast; [9]) | Growth Rate (Fibroblast; [8]) | Growth Rate (U2OS; [9]) | Growth Rate (Fibroblast; [10]) | Growth Rate (U2OS; [10])
1 | Cc1nc(Nc2n[nH]c3c2CN(C(=O)N[C@H](CN(C)C)c2ccccc2)C3(C)C)c2sccc2n1 [PF-03758309] | 0 | 0 | 0 | 0 | 0 | 1 | 0 | 0 | 0 | 0 |  |  |  |  |  |  |  |  |  | 
2 | CN1CCC[C@@H]1CCO[C@](C)(c1ccccc1)c1ccc(Cl)cc1.O=C(O)/C=C/C(=O)O [CLEMASTINE FUMARATE] |  | 1 | 0 | 0 | 0 |  |  | 0 | 0 | 0 | 0 | 0 | 0 |  |  |  |  |  |  | 
3 | COc1cc(-n2cnc3cc(-c4ccc(Cl)cc4)sc3c2=O)ccc1OCCN1CCCC1 |  | 0 | 0 | 0 | 0 | 0 | 0 | 0 | 0 | 0 |  |  |  |  |  |  |  |  |  | 
4 | Cc1cc(C)cc(-c2cnc3cc(Cl)c(-c4cccc(O)c4)cc3c2OCCCN)c1 |  | 0 | 0 | 0 | 0 |  | 0 | 0 | 0 | 0 | 0 |  |  | 0 |  |  |  |  |  | 
5 | Cn1cc(-c2[nH]c3cc(NC(=O)[C@H](N)C4CCCCC4)cc4c3c2C=NNC4=O)cn1 |  |  |  | 1 | 1 | 0 | 0 | 0 | 0 | 0 | 0 |  | 1 |  | 1 |  |  |  |  | 
6 | NC(=O)Nc1cc(-c2cccc(F)c2)sc1C(=O)N[C@H]1CCCNC1 [AZD-7762] | 0 | 1 | 0 | 0 | 0 | 0 | 0 | 0 | 0 | 0 |  |  |  |  |  | 1 |  |  |  | 
7 | C=CC(=O)Nc1cccc(C(=O)Nc2ccc(Nc3cc(-c4[nH]c(SC)nc4C)ccn3)cc2)c1 |  |  | 0 | 1 | 1 | 0 | 0 | 0 | 0 | 0 | 0 | 1 |  | 1 |  |  | 1 |  |  | 
8 | COc1ccc(Oc2cc(NCCC(F)(F)F)c3ncc(-c4ccc(C(=O)NC5CC5)c(C)c4)n3n2)c(F)c1F [BAY-1217389] | 1 | 0 | 0 | 0 | 0 | 0 | 0 | 0 | 0 | 0 |  |  |  |  | 1 |  |  | 1 |  | 
9 | COc1cccc([C@@H](C)NCCCc2ccccc2Cl)c1.Cl [TECALCET HYDROCHLORIDE] |  |  | 1 | 1 | 1 | 0 |  | 1 | 1 | 1 | 0 | 0 | 0 |  |  | 0 | 0 |  | 0 | 0
